Patent publication US9617256B2 (priority 2007, dated 2017)
Converted amounts (≈) assume the structure as drawn.

What was measured:
[1] = tested on: APAE006 in the presence of 8 micrograms per milliliter of polymyxin B nonapeptide; type: cell-based, P. aeruginosa; details: in the presence of 8 micrograms per milliliter of polymyxin B nonapeptide
Method in brief: (§1)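 CLSI-guided microdilution: bacteria passaged overnight at 35° C. on Mueller-Hinton agar, tested in cation-adjusted broth at a final 3×10^5–7×10^5 CFU/mL across 2-fold drug dilutions, read after 18-24 h at 35° C.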

AECO001 HSA AGP = assay: MIC broth microdilution, AECO001 HSA AGP; type: cell-based, E. coli; details: for MIC: Escherichia coli
Method in brief: (§2)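 Incubation: 35° C., ambient air, 18-24 h. Medium: cation-adjusted Mueller-Hinton broth with 2-fold serial dilutions of drug. Inoculum: 3×10^5–7×10^5 CFU/mL final, per CLSI microdilution method.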

[2] = tested on: AECO063 (ATCC25922 bearing an acrAB mutation); assay: microbe, parasite or virus in culture; type: cell-based, E. coli; details: for MIC: Escherichia coli, ATCC25922, read-out: MIC AECO063
Method in brief: as §2

AECO001 (ATCC25922) = assay: MIC broth microdilution, AECO001; type: cell-based, E. coli; details: for MIC: Escherichia coli, ATCC25922, read-out: MIC AECO001
Method in brief: as §2

[3] = tested on: APAE006 (strain of P. aeruginosa in which all efflux pumps are inactivated); assay: microbe, parasite or virus in culture; type: cell-based; details: for MIC: Pseudomonas aeruginosa, read-out: MIC APAE006, P. aeruginosa, all efflux pumps inactivated
Method in brief: as §1

APAE001 (ATCC27853) = assay: MIC broth microdilution, APAE001; type: cell-based, P. aeruginosa; details: for MIC: Pseudomonas aeruginosa, ATCC27853, read-out: MIC APAE001, APAE001 is ATCC27853
Method in brief: as §2

[4] = tested on: AABA1060 (clinical isolate of Acinetobacter baumannii); assay: MIC broth microdilution, AABA1060; type: cell-based; details: for MIC: Acinetobacter baumannii, read-out: MIC AABA1060
Method in brief: as §2

[5] = tested on: ASAU001 (laboratory strain of S. aureus, ATCC29213); assay: MIC broth microdilution, ASAU001; type: cell-based; details: for MIC: Staphylococcus aureus, ATCC29213, read-out: MIC ASAU001
Method in brief: as §2

Q: Which results are given for `C[C@@H](N)[C@H](NC(=O)c1ccc(C#Cc2ccc(CNCCF)cc2)cc1)C(=O)NO` [Example 118-9]?
A: MIC APAE006 + PMBN [1]: A (MIC's of 2.0 μg/mL or less = A); MIC (AECO001 HSA AGP): 2 to 16 µg/mL (≈ 4.85 to 38.8 µM); MIC [2]: < 2 µg/mL; MIC (AECO001 (ATCC25922)): < 2 µg/mL; MIC [3]: < 2 µg/mL; MIC (APAE001 (ATCC27853)): < 2 µg/mL; MIC [4]: 2 to 16 µg/mL (≈ 4.85 to 38.8 µM); MIC [5]: 16 to 64 µg/mL (≈ 38.8 to 155 µM)

Q: How did the “MIC APAE006 + PMBN” value [1] turn out when `C[C@@H](N)[C@H](NC(=O)c1ccc(C#Cc2ccc(CNCC(F)F)cc2)cc1)C(=O)NO` [Example 119-1, N-((1S,2R)-2-Amino-1-hydroxycarbamoyl-propyl)-4-{4-[(2,2-difluoro-ethylamino)-methyl]-phenylethynyl}-benzamide] was run?
A: A (MIC's of 2.0 μg/mL or less = A)

Q: And the MIC (AECO001 HSA AGP)?
A: 2 to 16 µg/mL (≈ 4.65 to 37.2 µM)

Q: And the MIC [2]?
A: < 2 µg/mL

Q: And the MIC (AECO001 (ATCC25922))?
A: < 2 µg/mL

Q: What about the MIC [3] of the same molecule?
A: < 2 µg/mL

Q: What about the MIC (APAE001 (ATCC27853)) of the same molecule?
A: < 2 µg/mL

Q: And the MIC [4]?
A: 2 to 16 µg/mL (≈ 4.65 to 37.2 µM)

Q: And the MIC [5]?
A: 16 to 64 µg/mL (≈ 37.2 to 149 µM)

Q: How did the “MIC APAE006 + PMBN” value [1] turn out when `C[C@@H](N)[C@H](NC(=O)c1ccc(C#Cc2ccc(CNC3CCC3)cc2)cc1)C(=O)NO` [Example 119-2] was run?
A: A (MIC's of 2.0 μg/mL or less = A)

Q: What about the MIC (AECO001 HSA AGP) of the same molecule?
A: 16 to 64 µg/mL (≈ 38 to 152 µM)

Q: And the MIC [2]?
A: 2 to 16 µg/mL (≈ 4.76 to 38 µM)

Q: What about the MIC (AECO001 (ATCC25922)) of the same molecule?
A: 2 to 16 µg/mL (≈ 4.76 to 38 µM)

Q: And the MIC [3]?
A: < 2 µg/mL

Q: What about the MIC (APAE001 (ATCC27853)) of the same molecule?
A: < 2 µg/mL

Q: And the MIC [4]?
A: > 64 µg/mL

Q: And the MIC [5]?
A: > 64 µg/mL

Q: `C[C@@H](N)[C@H](NC(=O)c1ccc(C#Cc2ccc(CNCc3nccn3C)cc2)cc1)C(=O)NO` [Example 119-3] was tested. Which “MIC APAE006 + PMBN” value [1] did it give?
A: A (MIC's of 2.0 μg/mL or less = A)

Q: What about the MIC (AECO001 HSA AGP) of the same molecule?
A: 2 to 16 µg/mL (≈ 4.34 to 34.7 µM)

Q: And the MIC [2]?
A: < 2 µg/mL

Q: What about the MIC (AECO001 (ATCC25922)) of the same molecule?
A: 2 to 16 µg/mL (≈ 4.34 to 34.7 µM)

Q: And the MIC [3]?
A: < 2 µg/mL

Q: What about the MIC (APAE001 (ATCC27853)) of the same molecule?
A: 2 to 16 µg/mL (≈ 4.34 to 34.7 µM)

Q: And the MIC [4]?
A: 16 to 64 µg/mL (≈ 34.7 to 139 µM)

Q: And the MIC [5]?
A: > 64 µg/mL

Q: With `CCNCc1ccc(C#Cc2ccc(C(=O)N[C@H](C(=O)NO)[C@@H](C)N)cc2)cc1` [Example 119-6] as the molecule, how does the “MIC APAE006 + PMBN” value [1] read?
A: A (MIC's of 2.0 μg/mL or less = A)

Q: And the MIC (AECO001 HSA AGP)?
A: 2 to 16 µg/mL (≈ 5.07 to 40.6 µM)

Q: And the MIC [2]?
A: < 2 µg/mL

Q: And the MIC (AECO001 (ATCC25922))?
A: 2 to 16 µg/mL (≈ 5.07 to 40.6 µM)

Q: And the MIC [3]?
A: < 2 µg/mL

Q: What about the MIC (APAE001 (ATCC27853)) of the same molecule?
A: < 2 µg/mL

Q: And the MIC [4]?
A: 16 to 64 µg/mL (≈ 40.6 to 162 µM)

Q: And the MIC [5]?
A: 16 to 64 µg/mL (≈ 40.6 to 162 µM)

Q: With `CCOCc1ccc(C#Cc2ccc(C(=O)N[C@H](C(=O)NO)[C@@H](C)N)cc2)cc1` [Example 120-1, N-((1S,2R)-2-Amino-1-hydroxycarbamoyl-propyl)-4-(4-ethoxymethyl-phenylethynyl)-benzamide] as the molecule, how does the “MIC APAE006 + PMBN” value [1] read?
A: A (MIC's of 2.0 μg/mL or less = A)

Q: And the MIC (AECO001 HSA AGP)?
A: 2 to 16 µg/mL (≈ 5.06 to 40.5 µM)

Q: What about the MIC [2] of the same molecule?
A: < 2 µg/mL

Q: And the MIC (AECO001 (ATCC25922))?
A: < 2 µg/mL

Q: And the MIC [3]?
A: < 2 µg/mL

Q: And the MIC (APAE001 (ATCC27853))?
A: < 2 µg/mL

Q: And the MIC [4]?
A: 2 to 16 µg/mL (≈ 5.06 to 40.5 µM)

Q: And the MIC [5]?
A: 16 to 64 µg/mL (≈ 40.5 to 162 µM)

Q: What does the source list for `C[C@@H](N)[C@H](NC(=O)c1ccc(C#Cc2ccc(CS(C)(=O)=O)cc2)cc1)C(=O)NO` [Example 120-2]?
A: MIC APAE006 + PMBN [1]: A (MIC's of 2.0 μg/mL or less = A); MIC (AECO001 HSA AGP): 16 to 64 µg/mL (≈ 37.3 to 149 µM); MIC [2]: < 2 µg/mL; MIC (AECO001 (ATCC25922)): 2 to 16 µg/mL (≈ 4.66 to 37.3 µM); MIC [3]: < 2 µg/mL; MIC (APAE001 (ATCC27853)): 2 to 16 µg/mL (≈ 4.66 to 37.3 µM); MIC [4]: 16 to 64 µg/mL (≈ 37.3 to 149 µM); MIC [5]: 16 to 64 µg/mL (≈ 37.3 to 149 µM)

Q: How did the “MIC APAE006 + PMBN” value [1] turn out when `C[C@@H](N)[C@H](NC(=O)c1ccc(C#Cc2ccc(CCO)cc2)cc1)C(=O)NO` [Example 120-3] was run?
A: A (MIC's of 2.0 μg/mL or less = A)

Q: What about the MIC (AECO001 HSA AGP) of the same molecule?
A: 2 to 16 µg/mL (≈ 5.24 to 41.9 µM)

Q: And the MIC [2]?
A: < 2 µg/mL

Q: What about the MIC (AECO001 (ATCC25922)) of the same molecule?
A: < 2 µg/mL

Q: What about the MIC [3] of the same molecule?
A: < 2 µg/mL

Q: What about the MIC (APAE001 (ATCC27853)) of the same molecule?
A: < 2 µg/mL

Q: What about the MIC [4] of the same molecule?
A: 2 to 16 µg/mL (≈ 5.24 to 41.9 µM)

Q: And the MIC [5]?
A: > 64 µg/mL

Q: Which results are given for `O=CN(O)CCNC(=O)c1ccc(C#Cc2ccc(CN3CCOCC3)cc2)cc1` [Example 127-1, N-[2-(Formyl-hydroxyamino)-ethyl]-4-(4-morpholin-4-ylmethyl-phenylethynyl)-benzamide]?
A: MIC APAE006 + PMBN [1]: C (MIC's of greater than 16.0 μg/mL to 64.0 μg/mL = C); MIC (AECO001 HSA AGP): 16 to 64 µg/mL (≈ 39.3 to 157 µM); MIC [2]: 2 to 16 µg/mL (≈ 4.91 to 39.3 µM); MIC (AECO001 (ATCC25922)): 16 to 64 µg/mL (≈ 39.3 to 157 µM); MIC [3]: 16 to 64 µg/mL (≈ 39.3 to 157 µM); MIC (APAE001 (ATCC27853)): > 64 µg/mL; MIC [4]: > 64 µg/mL; MIC [5]: > 64 µg/mL

Q: Which results are given for `O=CN(O)CC(CO)NC(=O)c1ccc(C#Cc2ccc(CN3CCOCC3)cc2)cc1` (stereo not shown) [Example 128-1, N-[2-(Formyl-hydroxy-amino)-1-hydroxymethyl-ethyl]-4-(4-morpholin-4-yl-methyl-phenylethynyl)-benzamide]?
A: MIC APAE006 + PMBN [1]: C (MIC's of greater than 16.0 μg/mL to 64.0 μg/mL = C); MIC AECO001 HSA AGP (AECO001 HSA AGP): C (MIC's of greater than 16.0 μg/mL to 64.0 μg/mL = C); MIC AECO063 ([2]; ATCC25922 bearing an acrAB mutation): C (MIC's of greater than 16.0 μg/mL to 64.0 μg/mL = C); MIC AECO001 (AECO001 (ATCC25922); AECO001 is ATCC25922): C (MIC's of greater than 16.0 μg/mL to 64.0 μg/mL = C); MIC APAE006 ([3]; P. aeruginosa, all efflux pumps inactivated): C (MIC's of greater than 16.0 μg/mL to 64.0 μg/mL = C); MIC APAE001 (APAE001 (ATCC27853); APAE001 is ATCC27853): C (MIC's of greater than 16.0 μg/mL to 64.0 μg/mL = C); MIC AABA1060 ([4]; clinical isolate of Acinetobacter baumannii): C (MIC's of greater than 16.0 μg/mL to 64.0 μg/mL = C); MIC ASAU001 ([5]; S. aureus ATCC29213): C (MIC's of greater than 16.0 μg/mL to 64.0 μg/mL = C)

Q: What does the source list for `C[C@@H](N)[C@H](NC(=O)c1ccc(C#Cc2ccc(CN)cc2)cc1)C(=O)NO` [Example 131-1, N-((1S,2R)-2-Amino-1-hydroxycarbamoyl-propyl)-4-(4-aminomethyl-phenylethynyl)-benzamide]?
A: MIC APAE006 + PMBN [1]: A (MIC's of 2.0 μg/mL or less = A); MIC (AECO001 HSA AGP): > 64 µg/mL; MIC [2]: 16 to 64 µg/mL (≈ 43.7 to 175 µM); MIC (AECO001 (ATCC25922)): 16 to 64 µg/mL (≈ 43.7 to 175 µM); MIC [3]: < 2 µg/mL; MIC (APAE001 (ATCC27853)): 2 to 16 µg/mL (≈ 5.46 to 43.7 µM); MIC [4]: > 64 µg/mL; MIC [5]: > 64 µg/mL
